Test results published in doi:10.1101/2024.08.13.607785v1 (biorxiv, 2024).
Where two headings read alike, the source gives them in different places.

Legend:
Experiment in all cases: biochemical
Parameters in all cases: species or system human cell line lysate
[1] = molecular target: Tyrosine-protein kinase Fyn ; FYN ; P06241 (Homo sapiens, UniProt P06241)
[2] = molecular target: Casein kinase I isoform gamma-2 ; CSNK1G2 ; P78368 (Homo sapiens, UniProt P78368)
[3] = molecular target: Isoform 6 of Tyrosine-protein kinase ABL2 ; ABL2 ; P42684-6 (Homo sapiens, UniProt P42684)
Isoform 6 of Tyrosine-protein kinase ABL2 ; ABL2 ; P42684-6, sequence (P42684 whole entry, canonical isoform): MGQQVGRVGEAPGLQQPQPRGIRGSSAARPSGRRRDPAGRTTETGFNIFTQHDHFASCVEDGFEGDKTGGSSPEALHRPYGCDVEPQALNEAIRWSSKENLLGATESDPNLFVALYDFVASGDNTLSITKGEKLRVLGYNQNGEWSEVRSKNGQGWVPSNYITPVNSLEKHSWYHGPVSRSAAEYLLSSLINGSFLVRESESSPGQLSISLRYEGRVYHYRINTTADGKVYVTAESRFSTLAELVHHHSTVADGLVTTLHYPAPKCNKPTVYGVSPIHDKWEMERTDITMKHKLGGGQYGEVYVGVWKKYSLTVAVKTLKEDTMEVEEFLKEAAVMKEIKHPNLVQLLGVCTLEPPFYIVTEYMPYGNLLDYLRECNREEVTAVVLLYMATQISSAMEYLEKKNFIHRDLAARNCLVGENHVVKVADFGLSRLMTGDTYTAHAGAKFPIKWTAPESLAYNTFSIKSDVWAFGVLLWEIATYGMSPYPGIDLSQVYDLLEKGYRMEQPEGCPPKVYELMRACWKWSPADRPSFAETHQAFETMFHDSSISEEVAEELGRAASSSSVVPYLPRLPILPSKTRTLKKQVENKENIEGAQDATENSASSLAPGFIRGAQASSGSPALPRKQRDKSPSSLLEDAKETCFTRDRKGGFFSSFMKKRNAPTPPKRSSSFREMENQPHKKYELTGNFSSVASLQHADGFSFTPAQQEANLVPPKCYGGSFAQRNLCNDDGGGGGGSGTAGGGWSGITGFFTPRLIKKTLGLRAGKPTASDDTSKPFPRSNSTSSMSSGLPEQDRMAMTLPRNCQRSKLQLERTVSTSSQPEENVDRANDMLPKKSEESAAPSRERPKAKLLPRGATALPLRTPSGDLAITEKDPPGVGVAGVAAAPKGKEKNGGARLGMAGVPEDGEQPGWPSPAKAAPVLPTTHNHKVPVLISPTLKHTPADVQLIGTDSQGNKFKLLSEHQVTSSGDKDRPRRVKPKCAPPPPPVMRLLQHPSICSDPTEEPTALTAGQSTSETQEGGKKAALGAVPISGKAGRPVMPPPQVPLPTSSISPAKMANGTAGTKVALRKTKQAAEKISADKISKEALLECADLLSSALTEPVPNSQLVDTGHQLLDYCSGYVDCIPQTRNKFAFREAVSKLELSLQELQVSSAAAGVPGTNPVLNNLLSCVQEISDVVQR

[4] = molecular target: Serine-protein kinase ATM ; ATM ; Q13315 (Homo sapiens, UniProt Q13315)
[5] = molecular target: Serine/threonine-protein kinase Nek9 ; NEK9 ; Q8TD19 (Homo sapiens, UniProt Q8TD19)
[6] = molecular target: Activin receptor type-1 ; ACVR1 ; Q04771 (Homo sapiens, UniProt Q04771)
[7] = molecular target: Phosphatidylinositol 5-phosphate 4-kinase type-2 gamma ; PIP4K2C ; Q8TBX8 (Homo sapiens, UniProt Q8TBX8)
Phosphatidylinositol 5-phosphate 4-kinase type-2 gamma ; PIP4K2C ; Q8TBX8, sequence (Q8TBX8 whole entry): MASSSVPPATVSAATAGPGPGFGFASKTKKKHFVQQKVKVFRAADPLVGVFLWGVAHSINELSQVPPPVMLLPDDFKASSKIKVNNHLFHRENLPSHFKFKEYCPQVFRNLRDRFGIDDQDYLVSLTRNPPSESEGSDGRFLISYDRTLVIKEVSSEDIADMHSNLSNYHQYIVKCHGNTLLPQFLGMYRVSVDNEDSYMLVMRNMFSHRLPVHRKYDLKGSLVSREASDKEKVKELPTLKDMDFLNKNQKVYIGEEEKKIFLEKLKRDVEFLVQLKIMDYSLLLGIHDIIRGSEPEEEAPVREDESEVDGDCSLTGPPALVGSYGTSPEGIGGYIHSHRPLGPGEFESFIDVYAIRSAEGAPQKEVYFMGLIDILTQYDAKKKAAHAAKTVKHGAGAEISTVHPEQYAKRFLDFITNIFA

[8] = molecular target: SNF-related serine/threonine-protein kinase ; SNRK ; Q9NRH2 (Homo sapiens, UniProt Q9NRH2)
[9] = molecular target: Isoform Beta of cGMP-dependent protein kinase 1 ; PRKG1 ; Q13976-2 (Homo sapiens, UniProt Q13976)
Isoform Beta of cGMP-dependent protein kinase 1 ; PRKG1 ; Q13976-2, sequence (Q13976 whole entry, canonical isoform): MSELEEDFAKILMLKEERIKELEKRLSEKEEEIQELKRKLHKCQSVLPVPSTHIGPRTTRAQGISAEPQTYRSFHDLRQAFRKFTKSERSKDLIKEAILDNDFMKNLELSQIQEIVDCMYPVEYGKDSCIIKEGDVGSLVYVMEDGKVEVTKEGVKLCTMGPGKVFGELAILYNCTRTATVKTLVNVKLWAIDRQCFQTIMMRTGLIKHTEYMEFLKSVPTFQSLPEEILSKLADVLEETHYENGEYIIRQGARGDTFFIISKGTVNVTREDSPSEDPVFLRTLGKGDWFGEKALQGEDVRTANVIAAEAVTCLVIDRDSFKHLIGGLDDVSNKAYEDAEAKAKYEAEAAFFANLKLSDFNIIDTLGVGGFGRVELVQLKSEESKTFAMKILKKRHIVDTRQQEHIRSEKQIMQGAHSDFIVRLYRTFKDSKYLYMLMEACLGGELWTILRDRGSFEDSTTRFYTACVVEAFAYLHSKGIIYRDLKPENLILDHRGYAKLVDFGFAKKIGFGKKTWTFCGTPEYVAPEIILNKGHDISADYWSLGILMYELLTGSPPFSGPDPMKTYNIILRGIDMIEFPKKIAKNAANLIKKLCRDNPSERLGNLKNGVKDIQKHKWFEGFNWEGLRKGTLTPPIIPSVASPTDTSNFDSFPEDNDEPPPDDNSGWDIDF

[10] = molecular target: Serine/threonine-protein kinase RIO1 ; RIOK1 ; Q9BRS2 (Homo sapiens, UniProt Q9BRS2)
[11] = molecular target: Serine/threonine-protein kinase PAK 5 ; PAK5 ; Q9P286 (Homo sapiens, UniProt Q9P286)
[12] = molecular target: Serine/threonine-protein kinase MRCK gamma ; CDC42BPG ; Q6DT37 (Homo sapiens, UniProt Q6DT37)
[13] = molecular target: Isoform 4 of Casein kinase I isoform gamma-3 ; CSNK1G3 ; Q9Y6M4-4 (Homo sapiens, UniProt Q9Y6M4)
[14] = molecular target: Serine/threonine-protein kinase PLK1 ; PLK1 ; P53350 (Homo sapiens, UniProt P53350)
[15] = molecular target: Phosphatidylinositol 4-kinase alpha ; PI4KA ; P42356 (Homo sapiens, UniProt P42356)
[16] = molecular target: Serine/threonine-protein kinase Sgk3 ; SGK3 ; Q96BR1 (Homo sapiens, UniProt Q96BR1)
[17] = molecular target: Mitotic checkpoint serine/threonine-protein kinase BUB1 ; BUB1 ; O43683 (Homo sapiens, UniProt O43683)
[18] = molecular target: Isoform 5 of Aurora kinase B ; AURKB ; Q96GD4-5 (Homo sapiens, UniProt Q96GD4)
[19] = molecular target: Phosphorylase b kinase gamma catalytic chain, liver/testis isoform ; PHKG2 ; P15735 (Homo sapiens, UniProt P15735)
[20] = molecular target: Mitogen-activated protein kinase kinase kinase 6 ; MAP3K6 ; O95382 (Homo sapiens, UniProt O95382)
Mitogen-activated protein kinase kinase kinase 6 ; MAP3K6 ; O95382, sequence (O95382 whole entry): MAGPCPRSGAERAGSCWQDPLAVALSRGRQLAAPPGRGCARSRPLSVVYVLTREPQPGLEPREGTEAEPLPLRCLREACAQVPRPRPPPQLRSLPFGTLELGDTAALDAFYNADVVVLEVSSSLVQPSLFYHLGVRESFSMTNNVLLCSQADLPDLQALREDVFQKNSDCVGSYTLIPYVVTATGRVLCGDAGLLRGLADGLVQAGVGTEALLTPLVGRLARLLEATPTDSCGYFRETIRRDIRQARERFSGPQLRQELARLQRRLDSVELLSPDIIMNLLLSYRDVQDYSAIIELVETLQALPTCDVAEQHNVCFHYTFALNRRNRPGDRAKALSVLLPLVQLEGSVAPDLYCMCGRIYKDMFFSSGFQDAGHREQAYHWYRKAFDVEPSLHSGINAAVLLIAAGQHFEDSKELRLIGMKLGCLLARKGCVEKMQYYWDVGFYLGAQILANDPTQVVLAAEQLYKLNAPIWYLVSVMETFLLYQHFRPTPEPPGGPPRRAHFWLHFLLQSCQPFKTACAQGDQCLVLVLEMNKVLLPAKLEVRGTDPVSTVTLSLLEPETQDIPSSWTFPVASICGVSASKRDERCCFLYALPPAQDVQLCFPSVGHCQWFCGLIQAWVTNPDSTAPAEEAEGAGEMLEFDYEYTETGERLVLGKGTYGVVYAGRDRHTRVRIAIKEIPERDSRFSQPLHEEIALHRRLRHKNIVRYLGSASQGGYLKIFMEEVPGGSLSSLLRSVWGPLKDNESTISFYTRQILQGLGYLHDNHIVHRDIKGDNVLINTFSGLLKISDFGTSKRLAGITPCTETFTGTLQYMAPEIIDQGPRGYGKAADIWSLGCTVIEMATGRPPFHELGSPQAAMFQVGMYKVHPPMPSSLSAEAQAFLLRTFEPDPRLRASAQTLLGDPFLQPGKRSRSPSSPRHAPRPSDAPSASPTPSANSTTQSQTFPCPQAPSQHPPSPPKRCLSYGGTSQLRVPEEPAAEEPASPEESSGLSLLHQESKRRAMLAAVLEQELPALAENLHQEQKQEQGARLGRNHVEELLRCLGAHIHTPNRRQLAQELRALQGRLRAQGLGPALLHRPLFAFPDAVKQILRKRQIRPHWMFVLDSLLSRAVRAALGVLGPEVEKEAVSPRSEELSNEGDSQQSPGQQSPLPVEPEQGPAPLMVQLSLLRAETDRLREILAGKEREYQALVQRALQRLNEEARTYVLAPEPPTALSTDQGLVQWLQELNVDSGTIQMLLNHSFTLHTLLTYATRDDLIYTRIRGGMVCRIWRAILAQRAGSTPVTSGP

[21] = molecular target: Mitogen-activated protein kinase kinase kinase kinase 2 ; MAP4K2 ; Q12851 (Homo sapiens, UniProt Q12851)
[22] = molecular target: Mitogen-activated protein kinase kinase kinase 11 ; MAP3K11 ; Q16584 (Homo sapiens, UniProt Q16584)
Mitogen-activated protein kinase kinase kinase 11 ; MAP3K11 ; Q16584, sequence (Q16584 whole entry): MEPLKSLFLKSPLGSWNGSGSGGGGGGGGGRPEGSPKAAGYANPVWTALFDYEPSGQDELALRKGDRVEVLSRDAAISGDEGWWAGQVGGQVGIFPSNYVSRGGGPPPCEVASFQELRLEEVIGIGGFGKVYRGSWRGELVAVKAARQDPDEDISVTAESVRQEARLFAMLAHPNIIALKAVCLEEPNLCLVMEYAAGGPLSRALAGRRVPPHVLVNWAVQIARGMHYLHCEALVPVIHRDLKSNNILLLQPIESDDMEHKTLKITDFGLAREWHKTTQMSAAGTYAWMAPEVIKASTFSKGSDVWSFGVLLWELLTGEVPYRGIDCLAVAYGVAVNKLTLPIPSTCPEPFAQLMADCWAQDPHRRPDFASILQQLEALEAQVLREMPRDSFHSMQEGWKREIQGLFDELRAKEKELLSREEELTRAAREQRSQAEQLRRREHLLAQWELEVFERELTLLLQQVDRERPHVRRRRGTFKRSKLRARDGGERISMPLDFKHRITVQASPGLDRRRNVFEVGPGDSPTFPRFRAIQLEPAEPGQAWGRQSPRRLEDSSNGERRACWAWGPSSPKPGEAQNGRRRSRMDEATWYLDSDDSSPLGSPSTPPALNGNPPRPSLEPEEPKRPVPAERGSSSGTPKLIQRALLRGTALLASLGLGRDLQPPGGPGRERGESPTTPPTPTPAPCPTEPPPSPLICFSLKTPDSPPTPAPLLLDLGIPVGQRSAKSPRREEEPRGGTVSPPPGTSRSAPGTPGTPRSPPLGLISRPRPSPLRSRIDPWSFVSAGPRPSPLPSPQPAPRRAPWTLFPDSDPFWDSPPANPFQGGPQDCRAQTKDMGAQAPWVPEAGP

[23] = molecular target: MAP kinase-activated protein kinase 2 ; MAPKAPK2 ; P49137 (Homo sapiens, UniProt P49137)
[24] = read-out: BAY-1143572 (10 µM) / %Intensity relative to DMSO
[25] = read-out: BAY-1251152 (10 µM) / %Intensity relative to DMSO

Tyrosine-protein kinase Fyn ; FYN ; P06241, sequence (P06241 whole entry, canonical isoform): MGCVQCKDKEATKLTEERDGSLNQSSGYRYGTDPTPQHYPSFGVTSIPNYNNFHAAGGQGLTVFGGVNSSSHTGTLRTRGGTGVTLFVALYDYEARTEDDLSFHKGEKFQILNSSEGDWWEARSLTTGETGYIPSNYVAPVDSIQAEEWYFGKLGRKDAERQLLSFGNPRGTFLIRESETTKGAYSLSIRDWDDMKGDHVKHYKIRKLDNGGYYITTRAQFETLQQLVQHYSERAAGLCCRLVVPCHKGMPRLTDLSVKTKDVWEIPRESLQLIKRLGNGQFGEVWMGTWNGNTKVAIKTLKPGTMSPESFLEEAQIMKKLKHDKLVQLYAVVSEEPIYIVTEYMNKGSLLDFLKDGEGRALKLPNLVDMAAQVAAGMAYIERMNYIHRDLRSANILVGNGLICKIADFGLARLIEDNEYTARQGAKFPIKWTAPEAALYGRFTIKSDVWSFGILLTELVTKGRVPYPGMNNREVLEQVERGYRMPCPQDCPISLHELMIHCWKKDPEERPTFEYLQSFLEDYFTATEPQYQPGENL

What does the source list for COc1cc(F)ccc1-c1ncnc(Nc2cccc(C[S@](C)(=N)=O)c2)n1 [BAY-1143572]?
remaining activity at 10 µM [1, 24]: 92.2%; remaining activity at 10 µM [2, 24]: 137%; remaining activity at 10 µM [3, 24]: 59.1%; remaining activity at 10 µM [4, 24]: 110%; remaining activity at 10 µM [5, 24]: 110%; remaining activity at 10 µM [6, 24]: 87.7%; remaining activity at 10 µM [7, 24]: 110%; remaining activity at 10 µM [8, 24]: 191%; remaining activity at 10 µM [9, 24]: 130%; remaining activity at 10 µM [10, 24]: 106%; remaining activity at 10 µM [11, 24]: 138%; remaining activity at 10 µM [12, 24]: 102%; remaining activity at 10 µM [13, 24]: 113%; remaining activity at 10 µM [14, 24]: 104%; remaining activity at 10 µM [15, 24]: 96.8%; remaining activity at 10 µM [16, 24]: 148%; remaining activity at 10 µM [17, 24]: 109%; remaining activity at 10 µM [18, 24]: 101%; remaining activity at 10 µM [19, 24]: 107%; remaining activity at 10 µM [20, 24]: 103%; remaining activity at 10 µM [21, 24]: 106%; remaining activity at 10 µM [22, 24]: 105%; remaining activity at 10 µM [23, 24]: 128%

COc1cc(F)ccc1-c1cc(Nc2cc(CS(C)(=N)=O)ccn2)ncc1F (stereo not shown) [BAY-1251152] was tested. Which remaining activity at 10 µM [1, 25] did it give?
Its remaining activity at 10 µM is 103%.

What about the remaining activity at 10 µM [2, 25] of the same compound?
Its remaining activity at 10 µM is 131%.

And the remaining activity at 10 µM [3, 25]?
Its remaining activity at 10 µM is 69.2%.

And the remaining activity at 10 µM [4, 25]?
Its remaining activity at 10 µM is 115%.

What about the remaining activity at 10 µM [5, 25] of the same compound?
The remaining activity at 10 µM was 110%.

What about the remaining activity at 10 µM [6, 25] of the same compound?
The remaining activity at 10 µM was 99.3%.

And the remaining activity at 10 µM [7, 25]?
Its remaining activity at 10 µM is 107%.

What about the remaining activity at 10 µM [8, 25] of the same compound?
Its remaining activity at 10 µM is 147%.

And the remaining activity at 10 µM [9, 25]?
The remaining activity at 10 µM was 117%.

What about the remaining activity at 10 µM [10, 25] of the same compound?
Its remaining activity at 10 µM is 96.7%.

And the remaining activity at 10 µM [11, 25]?
The remaining activity at 10 µM was 143%.

And the remaining activity at 10 µM [12, 25]?
The remaining activity at 10 µM was 103%.

What about the remaining activity at 10 µM [13, 25] of the same compound?
The remaining activity at 10 µM was 110%.

And the remaining activity at 10 µM [14, 25]?
The remaining activity at 10 µM was 96.8%.

What about the remaining activity at 10 µM [15, 25] of the same compound?
Its remaining activity at 10 µM is 100%.

And the remaining activity at 10 µM [16, 25]?
Its remaining activity at 10 µM is 139%.

What about the remaining activity at 10 µM [17, 25] of the same compound?
Its remaining activity at 10 µM is 106%.

And the remaining activity at 10 µM [18, 25]?
Its remaining activity at 10 µM is 65%.

What about the remaining activity at 10 µM [19, 25] of the same compound?
The remaining activity at 10 µM was 100%.

What about the remaining activity at 10 µM [20, 25] of the same compound?
The remaining activity at 10 µM was 103%.

What about the remaining activity at 10 µM [21, 25] of the same compound?
The remaining activity at 10 µM was 73.8%.

What about the remaining activity at 10 µM [22, 25] of the same compound?
The remaining activity at 10 µM was 81%.

What about the remaining activity at 10 µM [23, 25] of the same compound?
The remaining activity at 10 µM was 119%.
